The subject of the series is T-cells in HAM/TSP patient PBMC culture. Kind of series: Ex vivo spontaneous T-cell proliferation assay using HAM/TSP peripheral blood. It counts as cell-based, human. Particulars: FIG. 4D. As to the method: Proliferation assays were performed on HAM/TSP patient blood samples with and without the addition of BNZ-γ. These assays evaluated the ability of BNZ-γ to block the function of cytokines, such as IL-2 and IL-15, present in the ex vivo HAM/TSP patient blood culture and prevent spontaneous T-cell proliferation in these samples.
In an ex vivo spontaneous T-cell proliferation assay, PBMC from HAM/TSP patient was cultured at 1×10(6) cells per well of a 96 well plate in RPMI-10% FCS. Increasing concentrations of BNZ-γ peptide were added to each well. As a control, an irrelevant peptide was used in similar fashion. The cells were incubated in a 37° C. CO2 incubator for 3, 4, and 6 days. The amount of 1 uCi of ^3H-thymidine was added to the cells. After an additional 6 hour incubation, cells were harvested their proliferation rate was measured. As indicated in FIG. 4A-FIG. 4D, BNZ-γ peptide inhibits the spontaneous proliferation of T-cells in HAM/TSP culture at a concentration of about 1 ug/ml.
Other immunological markers were additionally measured in this assay. The percentage of the viral specific CD8 cells was measured during the ex vivo culture using viral protein tetramers. The population of CD4+CD25+ cells, a marker of T-cell activation, as well as Ki67 staining, a marker of T-cell proliferation, was monitored in a flow cytometry assay.

Peptide text beside a SMILES is read from it.

1 compound from patent US10030058B2, “Modulating gamma-C-cytokine activity” (Bioniz, LLC, priority 2015, dated 2018) can be followed below.

On to `CC[C@H](C)[C@H](N)C(=O)N[C@@H](CCCCN)C(=O)N[C@@H](CCC(=O)O)C(=O)N[C@@H](Cc1ccccc1)C(=O)N[C@@H](CC(C)C)C(=O)N[C@@H](CCC(N)=O)C(=O)N[C@@H](CCCNC(=N)N)C(=O)N[C@@H](Cc1ccccc1)C(=O)N[C@H](C(=O)N[C@@H](Cc1c[nH]cn1)C(=O)N[C@H](C(=O)N[C@H](C(=O)N[C@@H](CCC(N)=O)C(=O)N[C@@H](CO)C(=O)N[C@H](C(=O)N[C@H](C(=O)N[C@@H](CC(N)=O)C(=O)N[C@H](C(=O)N[C@@H](CO)C(=O)O)[C@@H](C)O)[C@@H](C)CC)[C@@H](C)CC)C(C)C)[C@@H](C)CC)[C@@H](C)CC` [BNZ-γ, I-K-E-F-L-Q-R-F-I-H-I-V-Q-S-I-I-N-T-S] (H-IKEFLQRFIHIVQSIINTS-OH), for which the “percent of live cells by Guava staining” value is recorded as “not impacted”.
